Key:
[1] = system: T-cell lines from an HIV-2 infected patient; assay: gamma-interferon-ELISPOT-assay, T-cell lines from an HIV-2 infected patient (FIG. 12); format: cell-based, human; conditions: PBMC stimulated by pool of 5 overlapping peptides aa151-210
Procedure: FIG. 12 Recognition of Bob-1 specific peptide aa171-190 by T-cell lines from an HIV-2 infected patient. PBMC from the patient had been stimulated by a pool of 5 overlapping peptides spanning aa151-210 of the Bob-1 sequence. Outgrowing cells were tested in a gamma-interferon-ELISPOT-assay of recognition of the peptide pool aa151-210 and of the individual peptides.

PBMC of a healthy person = assay: gamma-IFN-ELISPOT, in vitro stimulation of PBMC of a healthy person with peptide-loaded dendritic cells (FIG. 14); format: cell-based, human; conditions: pool 1 or pool 4 presented by autologous dendritic cells
Excerpt: Given are the number of peptide-specific T-cells after stimulation of the pool 1-specific or the pool 4-specific cell lines with the respective pools and the indicated peptides. […] The T-cell lines had been generated by stimulation of peripheral blood mononuclear cells (PBMC) with five different pools containing each five 20 amino acid (aa) long peptides with a 10 amino acid long overlap, corresponding to aa 1 to aa 256 of the Bob-1 protein. The peptide pools were presented by autologous dendritic cells that had been generated by a standard protocoll (Berger T G, Feuerstein B, Strasser E, Hirsch U, Schreiner D, Schuler G, Schuler-Thurner B. Large-scale generation of mature monocyte-derived dendritic cells for clinical application in cell factories. Journal of immunological methods 2002, 268: 131-140). […] Therefore, it represents a model for an in vivo induction of a Bob-1 specific T-cell response.
For this, PBMC of a healthy person were stimulated—as described above—with autologous dendritic cells loaded with a selection of Bob-1 derived peptides. […]

## QAPLTYFPWPQPLSTLPTST [peptide aa171-190]
[1]
  Recognition in gamma-interferon-ELISPOT: specific recognition
PBMC of a healthy person
  Recognition by T-cell lines, or induction of Bob-1-specific T-cells, gamma-IFN-ELISPOT: specific recognition

Source: patent publication US20070161108A1, “Bob-1 specific T cells and methods to use” (priority 2004, published 2007)
